From ChEMBL document CHEMBL1128197 (J Med Chem, 1995)

Biological target: Translocator protein (Rattus norvegicus, UniProt P16257)
Test: Binding affinity constant for peripheral (mitochondrial) Benzodiazepine receptor

Translocator protein, sequence (P16257 whole entry, looked up): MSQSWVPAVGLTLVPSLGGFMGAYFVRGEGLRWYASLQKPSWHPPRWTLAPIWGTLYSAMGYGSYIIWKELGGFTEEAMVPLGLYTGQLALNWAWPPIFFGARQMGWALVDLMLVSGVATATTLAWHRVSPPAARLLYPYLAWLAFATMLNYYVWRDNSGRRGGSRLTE

SMILES | Ki | Kd
CC(=O)OC1=C(c2ccc(Cl)cc2)Sc2ccccc2-n2cccc21 | 30 nM | 
COC1=C(c2ccccc2)Sc2ccccc2-n2cccc21 | 7000 nM | 
COc1ccc(C2=C(OC(=O)c3cccnc3)c3cccn3-c3ccccc3S2)cc1 | > 10 nM | 
COc1ccc(C2=C(OS(C)(=O)=O)c3cccn3-c3ccccc3S2)cc1 | 95 nM | 
CN(C)C(=O)OC1=C(c2ccccc2)Sc2ccccc2-n2cccc21 | 9 nM | 
COc1ccc(C2=C(OC(=O)c3cc(OC)c(OC)c(OC)c3)c3cccn3-c3cc(Cl)ccc3S2)cc1 | > 10 nM | 
C1=C(c2ccccc2)Sc2ccccc2-n2cccc21 | 3150 nM | 
CN1CCN=C(c2ccccc2)c2cc(Cl)ccc21 [MEDAZEPAM] |  | > 10 nM
